# In patent EP4755888A1 (ILAb Co., Ltd., priority 2023, dated 2025):
# Molecular target: PD-1/PD-L1 (Homo sapiens, UniProt Q9NZQ7)
# Test: TR-FRET PD-1/PD-L1 binding inhibition at the molecular level (free proteins)
# Conditions: Tag1-PD-L1 and Tag2-PD-1 proteins, twelve concentrations from 200 nM, 2 hours at room temperature, read-out: FRET assay (IC50)
# How it was run: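 HTRF read-out at 665/620 nm after 2 h at room temperature. Detection used anti-Tag1 Eu cryptate plus anti-Tag2 XL665 antibodies. Tagged PD-L1 and PD-1 proteins were pre-mixed with compound across twelve […] 1:2 dilutions starting at 200 nM.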
# PD-1/PD-L1, sequence (Q9NZQ7 19-238 limits assumed): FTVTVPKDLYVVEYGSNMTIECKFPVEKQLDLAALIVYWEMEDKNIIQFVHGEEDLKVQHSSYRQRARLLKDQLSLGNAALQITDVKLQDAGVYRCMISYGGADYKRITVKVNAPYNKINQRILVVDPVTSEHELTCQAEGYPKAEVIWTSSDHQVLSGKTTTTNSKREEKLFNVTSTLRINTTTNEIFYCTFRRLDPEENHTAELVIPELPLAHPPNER
row,Compound,IC50 [nM]
1,"Cc1c(NC(=O)c2cc3n(n2)CCCC3NCCO)cccc1-c1cccc(-c2cc3n(n2)CCCC3N2CC[C@@H](O)C2)c1C (stereo partly drawn) [Compound 159, 4-((2-hydroxyethyl)amino)-N-(3'-(4-((R)-3-hydroxypyrrolidin-1-yl)-4,5,6,7-tetrahydropyrazolo[1,5-a]pyridin-2-yl)-2,2'-dimethyl-[1,1'-biphenyl]-3-yl)-4,5,6,7-tetrahydropyrazolo[1,5-a]pyridine-2-carboxamide]",10 to 100
2,"Cc1c(NC(=O)c2cc3n(n2)CCCC3N2CCC(O)CC2)cccc1-c1cccc(Nc2nc(C(F)F)nc3cc(CN4CC[C@@H](O)C4)cnc23)c1C (stereo partly drawn) [Compound 135, N-(3'-((2-(difluoromethyl)-7-(((R)-3-hydroxypyrrolidin-1-yl)methyl)pyrido[3,2-d]pyrimidin-4-yl)amino)-2,2'-dimethyl-[1,1'-biphenyl]-3-yl)-4-(4-hydroxypiperidin-1-yl)-4,5,6,7-tetrahydropyrazolo[1,5-a]pyridine-2-carboxamide]",10 to 100
3,"Cn1c(C(=O)Nc2cccc(-c3cccc(NC(=O)c4cc5n(n4)CCCC5NC[C@@H]4CCC(=O)N4)c3Cl)c2Cl)nc2c1CCN(CCC13CCC(C(=O)O)(CC1)C3)C2 (stereo partly drawn) [Compound 54, 4-(2-(2-((2,2'-dichloro-3'-(4-((((S)-5-oxopyrrolidin-2-yl)methyl)amino)-4,5,6,7-tetrahydropyrazolo[1,5-a]pyridine-2-carboxamido)-[1,1'-biphenyl]-3-yl)carbamoyl)-1-methyl-6,7-dihydro-1H-imidazo[4,5-c]pyridin-5(4H)-yl)ethyl)bicyclo[2.2.1]heptane-1-carboxylic acid]",10 to 100
4,"CC(=O)NCCNC1CCCn2nc(C(=O)Nc3cccc(-c4cccc(NC(=O)c5nc6c(n5C)CCN(CCC57CCC(C(=O)O)(CC5)C7)C6)c4C)c3C)cc21 (centres unmarked) [Compound 46, 4-(2-(2-((3'-(4-((2-acetamidoethyl)amino)-4,5,6,7-tetrahydropyrazolo[1,5-a]pyridine-2-carboxamido)-2,2'-dimethyl-[1,1'-biphenyl]-3-yl)carbamoyl)-1-methyl-6,7-dihydro-1H-imidazo[4,5-c]pyridin-5(4H)-yl)ethyl)bicyclo[2.2.1]heptane-1-carboxylic acid]",< 10
5,"Cc1c(NC(=O)c2cc3n(n2)CCCC3O)cccc1-c1cccc(-c2ccc(CNC[C@@H]3CCC(=O)N3)cc2)c1C (stereo partly drawn) [Compound 109, N-(2,2'-dimethyl-4""-(((((S)-5-oxopyrrolidin-2-yl)methyl)amino)methyl)-[1,1':3',1""-terphenyl]-3-yl)-4-hydroxy-4,5,6,7-tetrahydropyrazolo[1,5-a]pyridine-2-carboxamide]",< 10
6,"COc1cc(-c2cccc(-c3cccc(NC(=O)c4cc5n(n4)CCCC5NCCO)c3Cl)c2Cl)cc(F)c1CNCCNC(C)=O (centres unmarked) [Compound 120, N-(4""-(((2-acetamidoethyl)amino)methyl)-2,2'-dichloro-3""-fluoro-5""-methoxy-[1,1':3',1""-terphenyl]-3-yl)-4-((2-hydroxyethyl)amino)-4,5,6,7-tetrahydropyrazolo[1,5-a]pyridine-2-carboxamide]",< 10
7,"Cc1c(NC(=O)c2cc3n(n2)CCN(CCO)C3)cccc1-c1cccc(Nc2nc(C(F)F)nc3cc(CN4CC[C@@H](O)C4)cnc23)c1C [Compound 327, (R)-N-(3'-((2-(difluoromethyl)-7-((3-hydroxypyrrolidin-1-yl)methyl)pyrido[3,2-d]pyrimidin-4-yl)amino)-2,2'-dimethyl-[1,1'-biphenyl]-3-yl)-5-(2-hydroxyethyl)-4,5,6,7-tetrahydropyrazolo[1,5-a]pyrazine-2-carboxamide]",< 10
8,"CC(=O)NCCNC1CCCn2nc(C(=O)Nc3cccc(-c4cccc(NC(=O)c5ccc(CNCCO)cn5)c4Cl)c3Cl)cc21 (centres unmarked) [Compound 82, 4-((2-acetamidoethyl)amino)-N-(2,2'-dichloro-3'-(5-(((2-hydroxyethyl)amino)methyl)picolinamido)-[1,1'-biphenyl]-3-yl)-4,5,6,7-tetrahydropyrazolo[1,5-a]pyridine-2-carboxamide]",< 10
9,"CC(=O)NCCNC1CCCn2nc(C(=O)Nc3cccc(-c4cccc(Nc5nc(C(F)F)nc6cc(CN7CC[C@@H](O)C7)cnc56)c4Cl)c3Cl)cc21 (stereo partly drawn) [Compound 139, 4-((2-acetamidoethyl)amino)-N-(2,2'-dichloro-3'-((2-(difluoromethyl)-7-(((R)-3-hydroxypyrrolidin-1-yl)methyl)pyrido[3,2-d]pyrimidin-4-yl)amino)-[1,1'-biphenyl]-3-yl)-4,5,6,7-tetrahydropyrazolo[1,5-a]pyridine-2-carboxamide]",10 to 100

# Results, then the compound that gave them:
row,IC50 [nM],Compound
1,10 to 100,"CC(C)(NC1CCCn2nc(C(=O)Nc3cccc(-c4cccc(Nc5nccc6cc(CN7CC[C@@H](O)C7)cnc56)c4Cl)c3Cl)cc21)C(=O)O (stereo partly drawn) [Compound 27, 2-((2-((2,2'-dichloro-3'-((3-(((R)-3-hydroxypyrrolidin-1-yl)methyl)-1,7-naphthyridin-8-yl)amino)-[1,1'-biphenyl]-3-yl)carbamoyl)-4,5,6,7-tetrahydropyrazolo[1,5-a]pyridin-4-yl)amino)-2-methylpropanoic acid]"
2,< 10,"Cc1c(NC(=O)c2cc3n(n2)CCCC3N2CCC(C(=O)O)CC2)cccc1-c1cccc(Nc2nc(C(F)F)nc3cc(CN4CC[C@@H](O)C4)cnc23)c1C (stereo partly drawn) [Compound 136, 1-(2-((3'-((2-(difluoromethyl)-7-(((R)-3-hydroxypyrrolidin-1-yl)methyl)pyrido[3,2-d]pyrimidin-4-yl)amino)-2,2'-dimethyl-[1,1'-biphenyl]-3-yl)carbamoyl)-4,5,6,7-tetrahydropyrazolo[1,5-a]pyridin-4-yl)piperidine-4-carboxylic acid]"
3,10 to 100,"O=C(Nc1cccc(-c2cccc(Nc3nc(C(F)(F)F)nc4cccnc34)c2Cl)c1Cl)c1cc2n(n1)CCC[C@H]2N1CC(C(=O)O)C1 [Compound 278, (R)-1-(2-((2,2'-dichloro-3'-((2-(trifluoromethyl)pyrido[3,2-d]pyrimidin-4-yl)amino)-[1,1'-biphenyl]-3-yl)carbamoyl)-4,5,6,7-tetrahydropyrazolo[1,5-a]pyridin-4-yl)azetidine-3-carboxylic acid]"
4,10 to 100,"CS(=O)(=O)NCCNC1CCCn2nc(C(=O)Nc3cccc(-c4cccc(Nc5nccc6cc(CN7CC[C@@H](O)C7)cnc56)c4Cl)c3Cl)cc21 (stereo partly drawn) [Compound 235, N-(2,2'-dichloro-3'-((3-(((R)-3-hydroxypyrrolidin-1-yl)methyl)-1,7-naphthyridin-8-yl)amino)-[1,1'-biphenyl]-3-yl)-4-((2-(methylsulfonamido)ethyl)amino)-4,5,6,7-tetrahydropyrazolo[1,5-a]pyridine-2-carboxamide]"
5,10 to 100,"O=C(Nc1cccc(-c2cccc(Nc3nccc4cc(CN5CC[C@@H](O)C5)cnc34)c2Cl)c1Cl)c1cc2n(n1)CCCN2CCO [Compound 322, (R)-N-(2,2'-dichloro-3'-((3-((3-hydroxypyrrolidin-1-yl)methyl)-1,7-naphthyridin-8-yl)amino)-[1,1'-biphenyl]-3-yl)-4-(2-hydroxyethyl)-4,5,6,7-tetrahydropyrazolo[1,5-a]pyrimidine-2-carboxamide]"
6,< 10,"OCCNC1CCCn2nc(-c3cccc(-c4cccc(Nc5nccc6cc(CN7CC[C@@H](O)C7)cnc56)c4Cl)c3Cl)cc21 (stereo partly drawn) [Compound 180, (3R)-1-((8-((2,2'-dichloro-3'-(4-((2-hydroxyethyl)amino)-4,5,6,7-tetrahydropyrazolo[1,5-a]pyridin-2-yl)-[1,1'-biphenyl]-3-yl)amino)-1,7-naphthyridin-3-yl)methyl)pyrrolidin-3-ol]"
7,< 10,"O=C(Nc1cccc(-c2cccc(Nc3nc(C(F)F)nc4cc(CN5CC[C@@H](O)C5)cnc34)c2Cl)c1Cl)c1cc2n(n1)CCCC2N1CCC(C(=O)O)CC1 (stereo partly drawn) [Compound 145, 1-(2-((2,2'-dichloro-3'-((2-(difluoromethyl)-7-({(R)-3-hydroxypyrrolidin-1-yl)methyl)pyrido[3,2-d]pyrimidin-4-yl)amino)-[1,1'-biphenyl]-3-yl)carbamoyl)-4,5,6,7-tetrahydropyrazolo[1,5-a]pyridin-4-yl)piperidine-4-carboxylic acid]"
8,10 to 100,"Cc1c(Nc2nccc3cc(CN4CC[C@@H](O)C4)cnc23)cccc1-c1cccc(NC(=O)c2cc3n(n2)CCCC3N2CCC(O)CC2)c1Cl (stereo partly drawn) [Compound 34, N-(2-chloro-3'-((3-(((R)-3-hydroxypyrrolidin-1-yl)methyl)-1,7-naphthyridin-8-yl)amino)-2'-methyl-[1,1'-biphenyl]-3-yl)-4-(4-hydroxypiperidin-1-yl)-4,5,6,7-tetrahydropyrazolo[1,5-a]pyridine-2-carboxamide]"
9,10 to 100,"O=C(Nc1cccc(-c2cccc(Nc3nc(C(F)F)nc4cc(CN5CC[C@@H](O)C5)cnc34)c2Cl)c1Cl)c1cc2n(n1)CCCC2O (stereo partly drawn) [Compound 138, N-(2,2'-dichloro-3'-((2-(difluoromethyl)-7-(((R)-3-hydroxypyrrolidin-1-yl)methyl)pyrido[3,2-d]pyrimidin-4-yl)amino)-[1,1'-biphenyl]-3-yl)-4-hydroxy-4,5,6,7-tetrahydropyrazolo[1,5-a]pyridine-2-carboxamide]"
10,10 to 100,"O=C(Nc1cccc(-c2cccc(Nc3nccc4cc(CN5CC[C@@H](O)C5)cnc34)c2Cl)c1Cl)c1cc2n(n1)CCCC2O (stereo partly drawn) [Compound 18, N-(2,2'-dichloro-3'-((3-(((R)-3-hydroxypyrrolidin-1-yl)methyl)-1,7-naphthyridin-8-yl)amino)-[1,1'-biphenyl]-3-yl)-4-hydroxy-4,5,6,7-tetrahydropyrazolo[1,5-a]pyridine-2-carboxamide]"
11,< 10,"O=C(Nc1cccc(-c2cccc(Nc3nccc4cc(CN5CC[C@@H](O)C5)cnc34)c2Cl)c1Cl)c1cc2n(n1)CCCC2N1CC[C@@H](C(=O)O)C1 (stereo partly drawn) [Compound 22, (3R)-1-(2-((2,2'-dichloro-3'-((3-(((R)-3-hydroxypyrrolidin-1-yl)methyl)-1,7-naphthyridin-8-yl)amino)-[1,1'-biphenyl]-3-yl)carbamoyl)-4,5,6,7-tetrahydropyrazolo[1,5-a]pyridin-4-yl)pyrrolidine-3-carboxylic acid]"
